What follows are molecules tested on human cytomegalovirus (HCMV) (assay: Antiviral activity against HCMV, virus yield/replication assay in MRC5 cells). Details: Human betaherpesvirus 5; infected human MRC5 cells; virus yield in supernatant at 96 hours / four days, read by IE protein expression in fresh MRC5 cells.
Format: cell-based
Experimental: Assessing Antiviral Activity Against Human Cytomegalovirus (HCMV)
To assess their antiviral activity, some compounds were tested against human cytomegalovirus (HCMV) in vitro. Human MRC5 cells were grown in Dulbecco's Modified Eagle Medium (DMEM) supplemented with 10% fetal bovine serum (FBS) and infected with an HCMV variant expressing GFP tagged pUL99 (the product of late viral UL99 gene) at a multiplicity of 1 infectious unit (IU) per cell. One hour later, medium of the cells was replaced with fresh medium containing the indicated compounds at 50, 25, 12.5, 6.25, 3.13, 1.56, 0.78, 0.39 μM or the carrier in which the compounds are dissolved (DMSO). Final concentration of DMSO was 0.5% in each treatment. Virus yield in the culture supernatant was determined at 96 hours after infection by infecting fresh MRC5 cells and assaying viral IE1 protein expression. Results were plotted using either Prism Software or CDD Vault (CDD Vault was developed by Collaborative Drug Discovery, Inc., 1633 Bayshore Hwy, Suite 342, Burlingame, Calif. 94010) in order to calculate IC50s.
Alternatively, antiviral efficacy of some compounds was assessed by inhibition of HCMV replication during in vitro replication assays. Briefly, confluent monolayers of MRC5 fibroblasts in a 96 well plate format (˜1.0×10^4 cells/well) were infected with an AD169 strain of HCMV for one hour. After the initial incubation hour, virus containing media was removed and 100 ul of media with sequential dilutions of FORGE compounds added to each well. The concentrations of the FORGE compounds were 50 μM, 25 μM, […], 6.25 μM, 3.125 μM, 1.56 μM, and 0.78125 μM as well as a vehicle control (0.5% DMSO). The concentration of DMSO was constant between all conditions. Assays were performed in duplicate. Infected plates were returned to the incubator and the viral infection was allowed to progress for four days. On the fourth day, 50 μL of cell free supernatant was collected from each well and used to infect a new 96 well plate seeded with a confluent monolayer of MRC5 fibroblasts along with 50 μL of media to bring the total volume to 100 μL. The next day the media was removed and the infected monolayer was fixed with cold methanol, and Immediate Early proteins were detected by immunofluorescence assays to quantify the number of cells that were infected with HCMV. IE gene expression was quantified within five random fields within each well and corresponding numbers were utilized to determine viral replication. Results from each well were normalized to the vehicle control well so as to allow a percent reduction from no drug treatment to be calculated. Results were plotted using either Prism Software or CDD Vault in order to calculate IC50s.

Structure (SMILES) | IC50
COc1ccc(C(C)CCNc2cnc3ccccc3c2)cc1 (stereo not drawn) [Example 1] | 25 to 50 µM
COc1ccc(C(C)CC(=O)Nc2cnc3ccccc3c2)cc1 (stereo not drawn) [Example 2] | > 50 µM
COc1cccc(C(C)CCNc2cnc3ccccc3c2)c1 (stereo not drawn) [Example 3] | 25 to 50 µM
COc1cccc(C(C)CC(=O)Nc2cnc3ccccc3c2)c1 (stereo not drawn) [Example 4] | 21.2 ± 14.5 µM
CC(CCNc1cnc2ccccc2c1)c1ccccc1Cl (stereo not drawn) [Example 5] | 18.6 ± 4.62 µM
CC(CC(=O)Nc1cnc2ccccc2c1)c1ccccc1Cl (stereo not drawn) [Example 6] | 21.1 ± 14.5 µM
CC(CCNc1cnc2ccccc2c1)c1ccccc1 (stereo not drawn) [Example 7] | > 50 µM
CC(CC(=O)Nc1cnc2ccccc2c1)c1ccccc1 (stereo not drawn) [Example 8] | 3.03 ± 0.69 µM
COc1ccc(C(C)CCNc2ccc3ncccc3c2)cc1 (stereo not drawn) [Example 9] | 2.41 ± 0.04 µM
COc1ccc(C(C)CC(=O)Nc2ccc3ncccc3c2)cc1 (stereo not drawn) [Example 10] | 5.82 ± 1.98 µM
COc1cccc(C(C)CCNc2ccc3ncccc3c2)c1 (stereo not drawn) [Example 11] | 5.75 ± 2.47 µM
COc1cccc(C(C)CC(=O)Nc2ccc3ncccc3c2)c1 (stereo not drawn) [Example 12] | 3.34 ± 1.45 µM
COc1ccccc1C(C)CCNc1ccc2ncccc2c1 (stereo not drawn) [Example 13] | 23.4 ± 0.6 µM
COc1ccccc1C(C)CC(=O)Nc1ccc2ncccc2c1 (stereo not drawn) [Example 14] | 2.2 ± 1.32 µM
COc1ccc(C(C)CCNc2cccc3cccnc23)cc1 (stereo not drawn) [Example 15] | 3.27 ± 0.41 µM
COc1ccc(C(C)CC(=O)Nc2cccc3cccnc23)cc1 (stereo not drawn) [Example 16] | 26.9 ± 11.5 µM
COc1cccc(C(C)CCNc2cccc3cccnc23)c1 (stereo not drawn) [Example 17] | 2.69 ± 0.94 µM
COc1cccc(C(C)CC(=O)Nc2cccc3cccnc23)c1 (stereo not drawn) [Example 18] | > 50 µM
COc1ccccc1C(C)CCNc1cccc2cccnc12 (stereo not drawn) [Example 19] | 1.28 ± 0.16 µM
COc1ccccc1C(C)CC(=O)Nc1cccc2cccnc12 (stereo not drawn) [Example 20] | 19.7 ± 14.7 µM
CC(CCNc1cccc2cccnc12)c1ccccc1Cl (stereo not drawn) [Example 21] | 1.2 ± 0.52 µM

Structure (SMILES) | IC50
CC(CC(=O)Nc1cccc2cccnc12)c1ccccc1Cl (stereo not drawn) [Example 22] | 1.28 ± 1.82 µM
Cc1ccccc1C(C)CCNc1cccc2cccnc12 (stereo not drawn) [Example 23] | 2.01 ± 0.71 µM
Cc1ccccc1C(C)CC(=O)Nc1cccc2cccnc12 (stereo not drawn) [Example 24] | > 50 µM
COc1ccccc1C(C)C(F)CNc1cccc2cccnc12 (stereo not drawn) [Example 25] | 3.73 ± 0.46 µM
COc1ccccc1C(C)C(F)C(=O)Nc1cccc2cccnc12 (stereo not drawn) [Example 26] | 5.38 ± 3.93 µM
COc1ccccc1C(C)C(O)CNc1cccc2cccnc12 (stereo not drawn) [Example 27] | 28.5 ± 2.68 µM
COc1ccccc1C(C)C(C)CNc1cccc2cccnc12 (stereo not drawn) [Example 28] | 2.89 ± 0.95 µM
COc1ccccc1C(C)C(C)C(=O)Nc1cccc2cccnc12 (stereo not drawn) [Example 29] | 11.5 ± 7.71 µM
COc1ccccc1CCCNc1cccc2cccnc12 [Example 30] | 12.1 ± 8.44 µM
COc1ccccc1CCC(=O)Nc1cccc2cccnc12 [Example 31] | > 50 µM
CCC(CCNc1cccc2cccnc12)c1ccccc1OC (stereo not drawn) [Example 32] | 2.25 ± 0.33 µM
CCC(CC(=O)Nc1cccc2cccnc12)c1ccccc1OC (stereo not drawn) [Example 33] | 5.3 ± 0.31 µM
CC(CCNc1cccc2cccnc12)c1ccccn1 (stereo not drawn) [Example 34] | > 50 µM
CC(CC(=O)Nc1cccc2cccnc12)c1ccccn1 (stereo not drawn) [Example 35] | > 50 µM
COc1ccccc1C(C)CCn1ccc2ccccc21 (stereo not drawn) [Example 36] | > 50 µM
COc1ccccc1C(C)CC(=O)n1ccc2ccccc21 (stereo not drawn) [Example 37] | > 50 µM
COc1ccccc1C(C)CCNc1cccc2nccnc12 (stereo not drawn) [Example 38] | 3.61 ± 0.54 µM
COc1ccccc1C(C)CC(=O)Nc1cccc2nccnc12 (stereo not drawn) [Example 39] | > 50 µM
COc1ccccc1C(C)CCNc1cccc2ccccc12 (stereo not drawn) [Example 40] | 2.83 ± 0.28 µM
COc1ccccc1C(C)CC(=O)Nc1cccc2ccccc12 (stereo not drawn) [Example 41] | 29.2 ± 17.8 µM
COc1ccccc1C(C)CCNc1cccc2[nH]ccc12 (stereo not drawn) [Example 42] | 1.32 ± 0.84 µM

Structure (SMILES) | IC50
COc1ccccc1C(C)CC(=O)Nc1cccc2[nH]ccc12 (stereo not drawn) [Example 43] | 12.5 ± 4.14 µM
COc1ccccc1C(C)CCNc1ccccc1 (stereo not drawn) [Example 44] | > 50 µM
COc1ccccc1C(C)CC(=O)Nc1ccccc1 (stereo not drawn) [Example 45] | > 50 µM
COc1ccc(Br)cc1C(C)CCNc1cccc2cccnc12 (stereo not drawn) [Example 46] | 21.7 ± 2.48 µM
COc1ccc(Br)cc1C(C)CC(=O)Nc1cccc2cccnc12 (stereo not drawn) [Example 47] | 5.88 ± 1.93 µM
CC(CCNc1cccc2cccnc12)c1ccccc1 (stereo not drawn) [Example 48] | > 50 µM
CC(CC(=O)Nc1cccc2cccnc12)c1ccccc1 (stereo not drawn) [Example 49] | > 50 µM
CC(CCNc1cccc2cccnc12)c1ccccc1Br (stereo not drawn) [Example 50] | 2.92 ± 1.26 µM
CC(CCNc1cccc2cccnc12)c1c(Cl)cccc1Cl (stereo not drawn) [Example 51] | 1.94 ± 0.51 µM
CC(CCOc1cccc2cccnc12)c1ccccc1Cl (stereo not drawn) [Example 52] | 1.98 ± 0.68 µM
CC(CCNc1ccc(Br)c2cccnc12)c1ccccc1 (stereo not drawn) [Example 53] | 11.6 ± 0.36 µM
CC(CNc1cccc2nccnc12)C(C)c1ccc(Cl)cc1Cl (stereo not drawn) [Example DV7016] | 23.1 µM
CC(CNc1cccc2nccnc12)C(C)c1cc(Cl)ccc1Cl (stereo not drawn) [Example FLS-114] | 6.4 µM
CC(CNc1cccc2[nH]ccc12)C(C)c1ccccc1Cl (stereo not drawn) [Example FLS-116] | 3.5 µM
CC(CNc1cccc2nccnc12)c1ccccc1Cl (stereo not drawn) [Example FLS-117] | 3.2 µM
CC(CNc1cccc2nccnc12)c1cc(Cl)ccc1Cl (stereo not drawn) [Example FLS-118] | 3.2 µM
CC(CNc1cccc2nccnc12)c1cc(Cl)cc(Cl)c1 (stereo not drawn) [Example FLS-119] | 2.7 µM
CC(CNc1cccc2[nH]ccc12)c1ccccc1Cl (stereo not drawn) [Example FLS-120] | 5 µM
CC(CCNc1ccc(Br)c2cccnc12)c1ccccc1Cl (stereo not drawn) [FH000006-K-6] | 7.9 µM
CC(CCC(=O)Nc1cccc2cccnc12)c1ccccc1Cl (stereo not drawn) [FH000006-K-8-A] | 4.5 µM
CC(CCCNc1cccc2cccnc12)c1ccccc1Cl (stereo not drawn) [FH000006-K-8] | 6.3 µM

— patent publication US10723708B2, “Anti-HCMV compositions and methods” (FORGE Life Science, LLC, priority 2014, dated 2020)
